“And” between values parts separate entries of the source, which are not always exact repeats. Equal entries are not always repeated. Inconclusive results and toxic doses are left out. Rule for the calls: active = survival T/C of 150% or more; inactive = T/C below 125% in these data. Peptide text beside a SMILES is read from it. * marks the point of attachment. Cbz = O=C(OCc1ccccc1)*
System: P388 leukemia ip, CD2F1 mice, survival T/C
Assay: NCI In Vivo Anticancer Drug Screen. Data for tumor model P388 Leukemia (intraperitoneal) in CD2F1 (CDF1) mice
Conditions: endpoint: median survival time, higher = longer survival
How it was run: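 Mice carrying the transplanted tumor received test compound or vehicle. Survival was recorded in each group, and the value is the treated-group measurement divided by that of the vehicle-treated control group.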

[1] = dose: 3.12 mg/kg/injection, schedule: Q01DX009 (ip), vehicle: saline
[2] = dose: 6.25 mg/kg/injection, schedule: Q01DX009 (ip), vehicle: saline
[3] = dose: 12.5 mg/kg/injection, schedule: Q01DX009 (ip), vehicle: saline
[4] = dose: 25.0 mg/kg/injection, schedule: Q01DX009 (ip), vehicle: saline
[5] = dose: 50.0 mg/kg/injection, schedule: Q01DX009 (ip), vehicle: saline
[6] = dose: 60.0 mg/kg/injection, schedule: Q01DX005 (ip), vehicle: saline with Tween-80
[7] = dose: 120.0 mg/kg/injection, schedule: Q01DX005 (ip), vehicle: saline with Tween-80
[8] = dose: 240.0 mg/kg/injection, schedule: Q01DX005 (ip), vehicle: saline with Tween-80
[9] = dose: 50.0 mg/kg/injection, schedule: Q01DX009 (ip), vehicle: Klucel (hydroxypropylcellulose) (HPC)
[10] = dose: 100.0 mg/kg/injection, schedule: Q01DX009 (ip), vehicle: Klucel (hydroxypropylcellulose) (HPC)
[11] = dose: 200.0 mg/kg/injection, schedule: Q01DX009 (ip), vehicle: Klucel (hydroxypropylcellulose) (HPC)
[12] = dose: 50.0 mg/kg/injection, schedule: Q01DX009 (ip), vehicle: saline with Tween-80
[13] = dose: 100.0 mg/kg/injection, schedule: Q01DX009 (ip), vehicle: saline with Tween-80
[14] = dose: 200.0 mg/kg/injection, schedule: Q01DX009 (ip), vehicle: saline with Tween-80

Measured: T/C

CS(=O)(=O)CC(=N\O)/C(CS(C)(=O)=O)=N/O
inactive: dose: 60.0 mg/kg/injection, schedule: Q01DX005 (ip), vehicle: saline 103 % of control | dose: 120.0 mg/kg/injection, schedule: Q01DX005 (ip), vehicle: saline 94 % of control | dose: 240.0 mg/kg/injection, schedule: Q01DX005 (ip), vehicle: saline 103 % of control

CC12CCC(O)CC1CCC1C2CCC2(C)C(c3ccc(=O)oc3)CCC12O (stereo not given)
inactive: dose: 0.31 mg/kg/injection, schedule: Q01DX009 (ip), vehicle: saline with Tween-80 100 % of control | dose: 0.62 mg/kg/injection, schedule: Q01DX009 (ip), vehicle: saline with Tween-80 97 % of control | dose: 1.25 mg/kg/injection, schedule: Q01DX009 (ip), vehicle: saline with Tween-80 97 % of control | dose: 2.5 mg/kg/injection, schedule: Q01DX009 (ip), vehicle: saline with Tween-80 103 % of control

CC(=O)N1CN=C2Sc3ccccc3N2C1
inactive: dose: 15.0 mg/kg/injection, schedule: Q01DX005 (ip), vehicle: Klucel (hydroxypropylcellulose) (HPC) 103 % of control | dose: 30.0 mg/kg/injection, schedule: Q01DX005 (ip), vehicle: Klucel (hydroxypropylcellulose) (HPC) 105 % of control | dose: 60.0 mg/kg/injection, schedule: Q01DX005 (ip), vehicle: Klucel (hydroxypropylcellulose) (HPC) 100 % of control and 104 % of control

CCOC(=O)C(=C(SC)SC)[n+]1ccc(C)cc1
inactive: dose: 12.5 mg/kg/injection, schedule: Q04DX002 (ip), vehicle: saline with Tween-80 104 % of control

C[CH2][Ge]1([CH2]C)[CH2]CC2(CCN(CCCN(C)C)C2)C[CH2]1
inactive: dose: 0.09 mg/kg/injection, schedule: Q01DX009 (ip), vehicle: saline 103 % of control | dose: 0.19 mg/kg/injection, schedule: Q01DX009 (ip), vehicle: saline 103 % of control and 98 % of control | dose: 0.39 mg/kg/injection, schedule: Q01DX009 (ip), vehicle: saline 101 % of control and 103 % of control | dose: 0.78 mg/kg/injection, schedule: Q01DX009 (ip), vehicle: saline 100 % of control and 104 % of control | dose: 1.56 mg/kg/injection, schedule: Q01DX009 (ip), vehicle: saline 100 % of control and 92 % of control | [1] 104 % of control and 98 % of control | [2] 104 % of control | dose: 6.28 mg/kg/injection, schedule: Q01DX009 (ip), vehicle: water 101 % of control | [3] 101 % of control and 104 % of control | dose: 12.5 mg/kg/injection, schedule: Q01DX009 (ip), vehicle: water 106 % of control | [4] 100 % of control and 105 % of control | dose: 25.0 mg/kg/injection, schedule: Q01DX009 (ip), vehicle: water 107 % of control | [5] 100 % of control and 98 % of control | dose: 50.0 mg/kg/injection, schedule: Q01DX009 (ip), vehicle: water 123 % of control | dose: 75.0 mg/kg/injection, schedule: Q01DX009 (ip), vehicle: saline 103 % of control and 104 % of control

Oc1ccc(O)c(Cl)c1Cl
inactive: [3] 105 % of control | [4] 98 % of control | dose: 25.0 mg/kg/injection, schedule: Q04DX003 (ip), vehicle: saline 106 % of control and 113 % of control | [5] 96 % of control | dose: 50.0 mg/kg/injection, schedule: Q04DX003 (ip), vehicle: saline 100 % of control and 120 % of control | dose: 100.0 mg/kg/injection, schedule: Q01DX009 (ip), vehicle: saline 104 % of control | dose: 100.0 mg/kg/injection, schedule: Q04DX002 (ip), vehicle: saline + alcohol 108 % of control | dose: 100.0 mg/kg/injection, schedule: Q04DX003 (ip), vehicle: saline 101 % of control and 118 % of control | dose: 200.0 mg/kg/injection, schedule: Q04DX002 (ip), vehicle: saline + alcohol 108 % of control | dose: 200.0 mg/kg/injection, schedule: Q04DX003 (ip), vehicle: saline 105 % of control | dose: 400.0 mg/kg/injection, schedule: Q04DX002 (ip), vehicle: saline + alcohol 99 % of control

NC(=O)NC(=O)C(Cc1ccc(Cl)cc1)c1ccccc1 (stereo not given)
inactive: dose: 30.0 mg/kg/injection, schedule: Q01DX005 (ip), vehicle: saline with Tween-80 96 % of control and 97 % of control | [6] 89 % of control and 94 % of control | [7] 87 % of control and 89 % of control | [8] 88 % of control

N#CC1C(=O)NC(=O)C(C#N)C1c1ccccc1 (stereo not given)
inactive: [9] 102 % of control | [10] 101 % of control | [11] 100 % of control

CC(=O)c1ccccc1OCC(O)CNc1ccc(Cl)cc1C(=O)c1ccccc1 (stereo not given)
inactive: [6] 99 % of control and 92 % of control | [7] 92 % of control | [8] 89 % of control and 96 % of control

O=C(O)CN1C(=O)C=CC1=O
inactive: [1] 90 % of control | [2] 101 % of control | [3] 101 % of control and 86 % of control

O=C1c2cccc(Oc3ccccc3)c2C(=O)c2cccc(Oc3ccccc3)c21
inactive: dose: 100.0 mg/kg/injection, schedule: Q04DX003 (ip), vehicle: saline with Tween-80 95 % of control | dose: 200.0 mg/kg/injection, schedule: Q04DX003 (ip), vehicle: saline with Tween-80 86 % of control | dose: 400.0 mg/kg/injection, schedule: Q04DX003 (ip), vehicle: saline with Tween-80 90 % of control

COc1cc([N+](=O)[O-])cc2cc(C)c(=O)oc12
inactive: [12] 99 % of control | [13] 91 % of control | [14] 91 % of control

CC(C)COC(=O)NCCCl
inactive: [12] 100 % of control | [13] 97 % of control | [14] 97 % of control

CN(C)C12CCC(c3ccccc31)c1ccccc12
inactive: [6] 105 % of control | [7] 97 % of control | [8] 104 % of control

Nc1nc(N)c(C(=O)SCc2ccccc2)nc1Cl
inactive: [9] 107 % of control | [10] 95 % of control | [11] 91 % of control

CC1(C(=O)O)CCC2(C)CCC3(C)C(=CC(=O)C4C5(C)CCC(O)C(C)(C)C5CCC43C)C2C1 (stereo not given)
inactive: dose: 25.0 mg/kg/injection, schedule: Q01DX009 (ip), vehicle: Klucel (hydroxypropylcellulose) (HPC) 95 % of control | [9] 100 % of control | dose: 50.0 mg/kg/injection, schedule: Q04DX003 (ip), vehicle: Klucel (hydroxypropylcellulose) (HPC) 105 % of control | [10] 94 % of control | dose: 100.0 mg/kg/injection, schedule: Q04DX003 (ip), vehicle: Klucel (hydroxypropylcellulose) (HPC) 100 % of control | [11] 94 % of control | dose: 200.0 mg/kg/injection, schedule: Q04DX003 (ip), vehicle: Klucel (hydroxypropylcellulose) (HPC) 106 % of control

N#CC(/C=C/c1ccccc1)Nc1ccccc1N (stereo not given)
inactive: dose: 100.0 mg/kg/injection, schedule: Q01DX001 (ip), vehicle: saline with Tween-80 100 % of control | dose: 400.0 mg/kg/injection, schedule: Q01DX001 (ip), vehicle: saline with Tween-80 100 % of control

C/C=C(\C)C(=O)N/N=C/c1cccc(OC)c1O
inactive: dose: 50.0 mg/kg/injection, schedule: Q01DX005 (ip), vehicle: Klucel (hydroxypropylcellulose) (HPC) 95 % of control | dose: 100.0 mg/kg/injection, schedule: Q01DX005 (ip), vehicle: Klucel (hydroxypropylcellulose) (HPC) 92 % of control | dose: 200.0 mg/kg/injection, schedule: Q01DX005 (ip), vehicle: Klucel (hydroxypropylcellulose) (HPC) 96 % of control

CC(NC(=O)OCc1ccccc1)C(=O)NC(CCCN=C(N)N)C(=O)O (stereo not drawn) (Cbz-Ala-Arg-OH; configuration not given here)
inactive: dose: 50.0 mg/kg/injection, schedule: Q01DX005 (ip), vehicle: saline with Tween-80 100 % of control | dose: 100.0 mg/kg/injection, schedule: Q01DX005 (ip), vehicle: saline with Tween-80 105 % of control | dose: 200.0 mg/kg/injection, schedule: Q01DX005 (ip), vehicle: saline with Tween-80 108 % of control

Source: PubChem BioAssay AID330 (DTP/NCI, 2004)
